We go through 2 compounds from publication PMC11643494, “Structure–Activity Relationship Studies in a Series of 2-Aryloxy-N-(pyrimidin-5-yl)acetamide Inhibitors of SLACK Potassium Channels” (Molecules, 2024).

Assay [1] concerns the target T1, Maxi-K α1/β3 (Homo sapiens, UniProt Q12791).
T1 construct: expressed in transfected cells; host or cells: HEK293
In words: Tl+-flux assay in HEK-293 cells, Maxi-K α1/β3. Type of assay: cell-based. Particulars: HEK293; 10 µM test compound; relative to control paxilline; read-out: Percent Inhibition ± SEM, Maxi-K α1/β3. An excerpt:
(§1) Having executed our plan to prepare analogs across the identified regions of the chemotype (Figure 2), we identified two analogs for further profiling and evaluation. […] Desiring to add a second compound with some measure of structural differences, we also chose another submicromolar SLACK inhibitor 66 (VU0936154). Whereas 40 contains an ether linker and a halogenated phenyl group in the eastern region, […] contains an N-methyl linker and a phenyl group with a more polar cyano substituent. We first screened these analogs at 10 µM versus our in-house panel of ion channel targets using Tl^+-flux assays in HEK-293 cells expressing the human target of interest. […] Included in this set are Slo family members SLICK and two isoforms of Maxi-K, as well as several different K^+, Na^+, and Ca^2+ channels (Table 6). […] Of note was the excellent selectivity versus the broader panel of targets for both compounds, including versus the hERG channel.
(§2) Stably transfected monoclonal HEK293 cell lines expressing SLICK, Maxi-K α1/β3, Maxi-K α1/β4, CaV3.2, GIRK 1/2, KV2.1, KV7.2, NaV1.7, and TASK-1 were generated as previously described. […]
(§3) The Tl^+ flux assays were conducted as previously described, with modifications optimized for individual cell lines as described below. […] Cell plates were then loaded onto a Panoptic kinetic imaging plate reader (WaveFront Biosciences, Franklin, TN, USA). […]

Assay [2] deals with T2, CaV3.2 (Homo sapiens, UniProt O95180).
T2 construct: expressed in transfected cells; host or cells: HEK293
In words: Tl+-flux assay in HEK-293 cells, CaV3.2. Type of assay: cell-based. Particulars: HEK293; 10 µM test compound; relative to control bepridil; read-out: Percent Inhibition ± SEM, CaV3.2.
Description: as §1, §2, §3

T2 sequence (O95180 whole entry): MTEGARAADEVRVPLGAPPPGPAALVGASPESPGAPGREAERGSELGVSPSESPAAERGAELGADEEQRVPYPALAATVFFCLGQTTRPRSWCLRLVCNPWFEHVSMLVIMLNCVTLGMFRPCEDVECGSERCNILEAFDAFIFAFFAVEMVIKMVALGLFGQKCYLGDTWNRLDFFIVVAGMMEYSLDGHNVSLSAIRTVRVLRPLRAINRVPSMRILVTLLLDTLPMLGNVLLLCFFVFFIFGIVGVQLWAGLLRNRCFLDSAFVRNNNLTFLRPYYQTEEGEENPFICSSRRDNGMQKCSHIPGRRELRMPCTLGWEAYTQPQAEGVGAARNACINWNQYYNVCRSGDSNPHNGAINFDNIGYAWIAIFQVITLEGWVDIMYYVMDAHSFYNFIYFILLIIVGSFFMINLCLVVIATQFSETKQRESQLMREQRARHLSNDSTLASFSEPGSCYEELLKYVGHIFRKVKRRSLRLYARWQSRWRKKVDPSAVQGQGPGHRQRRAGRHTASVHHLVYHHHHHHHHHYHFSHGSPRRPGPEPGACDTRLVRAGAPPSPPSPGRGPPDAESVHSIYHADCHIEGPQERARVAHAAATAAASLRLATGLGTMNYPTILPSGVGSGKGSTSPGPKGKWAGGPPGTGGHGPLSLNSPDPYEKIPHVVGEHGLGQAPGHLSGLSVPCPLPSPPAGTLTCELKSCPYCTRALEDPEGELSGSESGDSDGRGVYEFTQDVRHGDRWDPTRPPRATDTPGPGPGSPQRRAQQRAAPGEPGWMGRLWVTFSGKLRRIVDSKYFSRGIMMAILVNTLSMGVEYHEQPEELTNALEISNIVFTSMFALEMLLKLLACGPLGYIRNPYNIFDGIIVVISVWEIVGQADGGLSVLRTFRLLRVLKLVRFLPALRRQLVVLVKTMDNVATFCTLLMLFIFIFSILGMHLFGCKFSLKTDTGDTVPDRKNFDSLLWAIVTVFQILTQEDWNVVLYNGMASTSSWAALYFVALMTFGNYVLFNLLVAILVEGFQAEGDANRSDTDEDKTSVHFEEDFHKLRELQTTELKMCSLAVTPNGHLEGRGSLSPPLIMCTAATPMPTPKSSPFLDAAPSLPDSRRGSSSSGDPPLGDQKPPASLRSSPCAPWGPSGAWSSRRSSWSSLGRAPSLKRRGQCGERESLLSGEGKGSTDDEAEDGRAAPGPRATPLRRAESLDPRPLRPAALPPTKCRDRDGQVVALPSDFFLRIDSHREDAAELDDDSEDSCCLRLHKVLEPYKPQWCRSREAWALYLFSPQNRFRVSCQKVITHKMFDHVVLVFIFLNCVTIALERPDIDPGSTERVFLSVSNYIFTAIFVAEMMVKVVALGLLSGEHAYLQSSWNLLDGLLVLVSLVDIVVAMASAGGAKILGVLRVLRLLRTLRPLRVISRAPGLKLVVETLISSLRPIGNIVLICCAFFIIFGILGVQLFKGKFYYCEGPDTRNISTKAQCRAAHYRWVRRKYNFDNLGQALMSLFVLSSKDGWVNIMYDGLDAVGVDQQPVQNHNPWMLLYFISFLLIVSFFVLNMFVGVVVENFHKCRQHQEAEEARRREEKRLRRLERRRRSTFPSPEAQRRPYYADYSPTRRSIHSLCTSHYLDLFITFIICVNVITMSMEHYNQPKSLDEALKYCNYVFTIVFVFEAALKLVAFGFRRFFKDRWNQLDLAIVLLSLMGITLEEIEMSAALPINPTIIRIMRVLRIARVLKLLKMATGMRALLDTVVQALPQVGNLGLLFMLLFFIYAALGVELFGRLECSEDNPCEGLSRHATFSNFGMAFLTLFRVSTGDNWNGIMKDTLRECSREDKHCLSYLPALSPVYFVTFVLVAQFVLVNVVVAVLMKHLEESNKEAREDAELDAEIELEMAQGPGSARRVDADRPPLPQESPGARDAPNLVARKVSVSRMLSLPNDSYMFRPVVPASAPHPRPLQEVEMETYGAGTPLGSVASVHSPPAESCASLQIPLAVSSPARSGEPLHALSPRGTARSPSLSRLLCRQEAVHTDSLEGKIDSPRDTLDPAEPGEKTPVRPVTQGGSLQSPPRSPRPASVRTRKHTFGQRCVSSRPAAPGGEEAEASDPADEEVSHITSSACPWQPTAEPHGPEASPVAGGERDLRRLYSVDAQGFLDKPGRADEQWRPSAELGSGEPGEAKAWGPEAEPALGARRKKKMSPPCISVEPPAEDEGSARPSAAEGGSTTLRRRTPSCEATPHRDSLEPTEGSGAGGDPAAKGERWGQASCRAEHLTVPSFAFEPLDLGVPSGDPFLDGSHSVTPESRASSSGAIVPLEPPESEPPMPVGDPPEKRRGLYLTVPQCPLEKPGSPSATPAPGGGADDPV
T1 sequence (Q12791 whole entry): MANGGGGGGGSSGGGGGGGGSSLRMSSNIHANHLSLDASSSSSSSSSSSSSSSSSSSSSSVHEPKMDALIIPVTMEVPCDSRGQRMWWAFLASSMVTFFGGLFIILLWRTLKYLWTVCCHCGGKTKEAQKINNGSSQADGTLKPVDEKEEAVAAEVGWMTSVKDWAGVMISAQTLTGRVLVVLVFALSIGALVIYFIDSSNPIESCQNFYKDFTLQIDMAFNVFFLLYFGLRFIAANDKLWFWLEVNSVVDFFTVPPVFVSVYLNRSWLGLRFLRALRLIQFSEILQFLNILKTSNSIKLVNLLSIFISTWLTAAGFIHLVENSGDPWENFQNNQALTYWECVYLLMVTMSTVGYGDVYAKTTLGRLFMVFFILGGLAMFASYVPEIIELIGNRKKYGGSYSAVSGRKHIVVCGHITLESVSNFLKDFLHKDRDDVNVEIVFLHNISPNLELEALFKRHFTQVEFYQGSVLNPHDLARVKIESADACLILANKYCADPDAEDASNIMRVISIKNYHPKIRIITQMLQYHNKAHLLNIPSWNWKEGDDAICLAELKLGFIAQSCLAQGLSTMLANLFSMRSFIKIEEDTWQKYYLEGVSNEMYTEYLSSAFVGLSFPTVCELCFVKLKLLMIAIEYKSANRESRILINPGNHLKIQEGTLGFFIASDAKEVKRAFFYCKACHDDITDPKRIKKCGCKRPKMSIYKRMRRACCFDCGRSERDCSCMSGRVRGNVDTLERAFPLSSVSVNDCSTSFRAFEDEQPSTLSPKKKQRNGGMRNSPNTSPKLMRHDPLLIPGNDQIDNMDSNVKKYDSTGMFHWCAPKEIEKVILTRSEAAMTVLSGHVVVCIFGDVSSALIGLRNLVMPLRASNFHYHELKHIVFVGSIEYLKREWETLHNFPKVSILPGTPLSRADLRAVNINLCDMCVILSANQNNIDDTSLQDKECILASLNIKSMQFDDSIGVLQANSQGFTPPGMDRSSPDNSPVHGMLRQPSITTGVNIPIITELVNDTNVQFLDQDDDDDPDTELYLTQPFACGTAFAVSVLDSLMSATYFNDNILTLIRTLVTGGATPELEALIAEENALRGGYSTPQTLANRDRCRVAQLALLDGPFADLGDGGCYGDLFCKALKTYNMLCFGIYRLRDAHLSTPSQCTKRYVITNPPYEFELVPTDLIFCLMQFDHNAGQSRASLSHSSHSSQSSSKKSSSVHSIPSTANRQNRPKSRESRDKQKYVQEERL
T1 sequence (Q9NPA1 whole entry partner): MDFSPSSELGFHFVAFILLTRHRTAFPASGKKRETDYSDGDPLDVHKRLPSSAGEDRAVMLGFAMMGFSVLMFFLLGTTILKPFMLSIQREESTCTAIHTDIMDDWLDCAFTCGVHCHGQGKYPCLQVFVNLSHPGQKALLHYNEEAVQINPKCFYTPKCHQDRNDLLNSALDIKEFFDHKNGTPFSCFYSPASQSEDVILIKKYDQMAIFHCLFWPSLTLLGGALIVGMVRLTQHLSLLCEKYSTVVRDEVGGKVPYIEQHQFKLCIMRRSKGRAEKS

Regarding `CC(C)(Oc1ccc(Cl)cc1)C(=O)Nc1cnc(Oc2c(F)cccc2F)nc1` [Analog 40], the inhibition at 10 µM in assay [1] is 27 ± 11%; in assay [2] it was 10 ± 0.82%.

Turning to `CN(c1ccc(C#N)cc1)c1ncc(NC(=O)C(C)(C)Oc2ccc(Cl)cc2)cn1` [Analog 66], the inhibition at 10 µM in assay [1] worked out at 30 ± 2.6%; in assay [2], 32 ± 2.4%.
